Results: patent EP3587416A1, “2-OXOPIPERIDIN-3-YL DERIVATIVES AND USE THEREOF” (Institut Univ. de Ciència i Tecnologia, S.A., priority 2018, dated 2020)
Several values for one entry are separate records, joined by “and”; a condition that tells them apart may be missing. Equal values may be shown once.

Columns and labels:
[1] = target: T1, CNA-CF-PRIEIT interaction (Homo sapiens, UniProt Q08209); test: Fluorescence polarization assay, disruption of the CNA-CF-PRIEIT interaction (Example 20); type: binding; conditions: 50 µM compound, 5 µM human CNAα, 30 nM CF-PRIEIT; mean of triplicates
T1 construct: human CNAα (amino acids 2-347)
Experimental: Compounds were analyzed for their potential to disrupt the interaction between the human catalytic domain of the calcineurin Aα subunit (CNAα) and the NFATc2-derived PRIEIT peptide. For this purpose we used Flourescence Polarization (FP) technique described in Mulero et al, 2009 (J. Biol. Chem.284:9394-9401). Briefly, to identify disruptors of the CNA-PRIEIT interaction, 5 µM of human CNAα (amino acids 2-347) is preincubated with 50 µM of each hit compound in OptiPlate black 384-well flat-bottom plates (PerkinElmer Life Sciences) for 15 min at room temperature. Then, carboxyfluorescein (CF)-tagged NFATc2-derived PRIEIT peptide (CF-PRIEIT, 30 nM) is added to each well and incubated for 15 more min at room temperature. Each compound has been analyzed once with triplicates. FP measurements were performed using a Victor™ X5 2030 Multilabel Reader (PerkinElmer Life Sciences) with excitation and emission wavelengths of 485 nm and 535 nm, respectively. The fluorescent polarization of the free CF-peptide was considered 0% binding and the binding of CNA to the CF-PRIEIT peptide as 100% binding. Accordingly, the capacity of the compound to disrupt CNA-CF-PRIEIT interaction was measured. None of them displace the CF-PRIEIT peptide from the CNA-PRIEIT interaction (Table 3). Interaction disruption values are less than 30%. […] Data is given as mean ± standard deviation (SD).

[2] = test system: NFATc activation in HEK 293T cells; test: 3xNFAT-luc dual-luciferase reporter assay of NFATc activation; type: cell-based, human; conditions: Io/PMA/CaCl2 stimulation, inhibition at least at 100, 50 and 20 µM (Figure 1)
Experimental: • Figure 1. Effect of INK compounds on NFATc activation in HEK 293T cells. Cells were transfected with 3xNFAT-luc reporter gene, treated with each compound at 0 µM / 0.02 µM / 0.2 µM / 1 µM / 5 µM/ 20 µM / 50 µM /100 µM (increasing concentrations of the compounds are represented in the graph from left to right) for 2 hours. Then, cells were calcium stimulated with ionomycin (1 µM), PMA (20 nM) and CaCl2 (10 mM) for 4 hours and luciferase activity was analyzed following the dual luciferase reporter assay manufacters' indications and a luminometer (Victor X5 plate reader form Perin-Elmer). […] CN activity towards the RII peptide was analyzed in the absence (positive control of CN activity) or in the presence of each compound at 50 µM, or of 50 µM of LxVP peptide (positive control of CN activity inhibition). […]
To determine the ffect of INK compounds on NFATc activation, HEK 293T cells were transfected with 3xNFAT-luc reporter gene and Renilla-luc plasmid as control of gene transfection. […] Then, cells were treated with compounds of formula (I) at several concentrations for 2 hours and light units analyzed following manufacture's protocol of the dual-luciferase reporter assay system (Figure 1, Functional effect of pair related structure compounds on NFATc activation).

CN-PRIEIT interaction = target: T2, CN-PRIEIT interaction (Homo sapiens, UniProt Q08209); test: Fluorescence polarization competition binding assay, CF-SPRIEIT bound to CNA (Example 21); conditions: 6 µM CNA, 30 nM CF-SPRIEIT, no competitor = 100%
T2 construct: recombinant human CNAD (amino acids 2-347) fused to glutathione S-transferase; GST (glutathione S-transferase); made in house; host or cells: bacteria
Experimental: INK compounds were analyzed for their ability to disrupt CN-PRIEIT interaction using a fluorescence polarization assay. This biochemical assay requires recombinant human CNAD (amino acids 2-347) fused to glutathione S-transferase (GST-CN), which was expressed and purified from bacteria, and a NFATc2-derived PRIEIT peptide labeled with carboxyfluorescein (CF), CF-PRIEIT. Competition binding assays of INK compounds on the interaction of CN with the CF-NFATc2-derived PRIEIT peptide were performed by fluorescence polarization. Briefly, 6 µM of CNA was incubated in the absence (positive control of interaction) or in the presence of 50 µM or 10 µM of competitor compound prior to addition of 30 nM of CF-SPRIEIT peptide. VIVIT peptide was included as positive control of interaction disruption ability. Data is represented as mean percentage of CF-SPRIEIT bound to CNA (± SEM) of 2 experiments performed in triplicates. Signal in the absence of competing peptide was considered as 100% of CF-SPRIEIT bound to CNA. Table 4: Functional effect of pair related structure compounds on NFATc activation

T2 sequence (Q08209 2-347): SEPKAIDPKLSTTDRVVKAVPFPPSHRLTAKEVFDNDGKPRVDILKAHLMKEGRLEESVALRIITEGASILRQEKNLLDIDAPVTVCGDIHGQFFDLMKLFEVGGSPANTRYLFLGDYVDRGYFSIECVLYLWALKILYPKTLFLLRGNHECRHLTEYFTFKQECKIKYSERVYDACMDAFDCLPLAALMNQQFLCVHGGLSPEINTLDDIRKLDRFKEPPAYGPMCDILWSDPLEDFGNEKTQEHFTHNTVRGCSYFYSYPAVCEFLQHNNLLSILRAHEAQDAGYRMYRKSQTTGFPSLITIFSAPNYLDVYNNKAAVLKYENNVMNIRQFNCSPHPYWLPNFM
T1 sequence (Q08209 2-347): as above

SMILES | inhibition at 50 µM [1] | further results
COc1ccccc1-c1ccc(N2CCCC(NS(=O)(=O)c3ccc4c(c3)OCO4)C2=O)c(F)c1 (stereo not shown) [IUCT-0462, N-(1-(3-fluoro-2'-methoxy-[1,1'-biphenyl]-4-yl)-2-oxopiperidin-3-yl)benzo[d][1,3]dioxole-5-sulfonamide] | 25.7% | –
COc1ccccc1-c1ccc(N2CCCC(NS(=O)(=O)c3cc(Cl)c(Cl)s3)C2=O)c(F)c1 (stereo not shown) [IUCT-0460, 4,5-Dichloro-N-(1-(3-fluoro-2'-methoxy-[1,1'-biphenyl]-4-yl)-2-oxopiperidin-3-yl)thiophene-2-sulfonamide] | 6.53% | –
COc1ccccc1-c1ccc(N2CCCC(N(CC#N)S(=O)(=O)c3cc(Cl)c(Cl)s3)C2=O)c(F)c1 (stereo not shown) [IUCT-0465, 4,5-Dichloro-N-(cyanomethyl)-N-(1-(3-fluoro-2'-methoxy-[1,1'-biphenyl]-4-yl)-2-oxopiperidin-3-yl)thiophene-2-sulfonamide] | 13.8% | –
COc1ccccc1-c1ccc(N2CCCC(NS(=O)(=O)c3c(C)noc3C)C2=O)c(F)c1 (stereo not shown) [IUCT-0461, N-(1-(3-fluoro-2'-methoxy-[1,1'-biphenyl]-4-yl)-2-oxopiperidin-3-yl)-3,5-dimethylisoxazole-4-sulfonamide] | 11.1% | –
CCOC(=O)CN(C1CCCN(c2ccc(-c3ccccc3OC)cc2F)C1=O)S(=O)(=O)c1ccc2c(c1)OCO2 (stereo not shown) [IUCT-0466, Ethyl N-(benzo[d][1,3]dioxol-5-ylsulfonyl)-N-(1-(3-fluoro-2'-methoxy-[1,1'-biphenyl]-4-yl)-2-oxopiperidin-3-yl)glycinate] | 16.7% | –

The next lines start with results.

inhibition at 50 µM [1] | SMILES | further results
25.8% | COc1ccccc1-c1ccc(N2CCCC(NS(=O)(=O)c3cc4ccccc4o3)C2=O)c(F)c1 (stereo not shown) [IUCT-0464, N-(1-(3-fluoro-2'-methoxy-[1,1'-biphenyl]-4-yl)-2-oxopiperidin-3-yl)benzofuran-2-sulfonamide] | NFATc activation [2]: strongly inhibits; Relative interaction (%) Mean (CN-PRIEIT interaction; 10 µM competitor): 93,8%; Relative interaction (%) Sample at 10 µM (CN-PRIEIT interaction; 10 µM competitor, single replicate): 96,8% and 92,3% and 92,4%; Relative interaction (%) Mean (CN-PRIEIT interaction; 50 µM competitor): 83,2%; Relative interaction (%) Sample at 50 µM (CN-PRIEIT interaction; 50 µM competitor, single replicate): 79,0% and 87,7% and 82,9%
15.8% | COc1ccccc1-c1ccc(N2CCCC(NS(=O)(=O)c3ccc(-c4ccccn4)s3)C2=O)c(F)c1 (stereo not shown) [IUCT-0463, N-(1-(3-fluoro-2'-methoxy-[1,1'-biphenyl]-4-yl)-2-oxopiperidin-3-yl)-5-(pyridin-2-yl)thiophene-2-sulfonamide] | –
29.3% | CCOC(=O)CN(C1CCCN(c2ccc(-c3ccccc3OC)cc2F)C1=O)S(=O)(=O)c1ccc(-c2ccccn2)s1 (stereo not shown) [IUCT-0469, Ethyl N-(1-(3-fluoro-2'-methoxy-[1,1'-biphenyl]-4-yl)-2-oxopiperidin-3-yl)-N-((5-(pyridin-2-yl)thiophen-2-yl)sulfonyl)glycinate] | –
